Values of other authors in article PMC3156379 (Bioorganic & medicinal chemistry letters, 2011).

Tests used:
MAG = biological target: T1, MAG (Homo sapiens, UniProt P20916); conditions: read-out: Kd for MAG; structures β-linked to synthetic aglycons
T1 sequence (P20916 20-626): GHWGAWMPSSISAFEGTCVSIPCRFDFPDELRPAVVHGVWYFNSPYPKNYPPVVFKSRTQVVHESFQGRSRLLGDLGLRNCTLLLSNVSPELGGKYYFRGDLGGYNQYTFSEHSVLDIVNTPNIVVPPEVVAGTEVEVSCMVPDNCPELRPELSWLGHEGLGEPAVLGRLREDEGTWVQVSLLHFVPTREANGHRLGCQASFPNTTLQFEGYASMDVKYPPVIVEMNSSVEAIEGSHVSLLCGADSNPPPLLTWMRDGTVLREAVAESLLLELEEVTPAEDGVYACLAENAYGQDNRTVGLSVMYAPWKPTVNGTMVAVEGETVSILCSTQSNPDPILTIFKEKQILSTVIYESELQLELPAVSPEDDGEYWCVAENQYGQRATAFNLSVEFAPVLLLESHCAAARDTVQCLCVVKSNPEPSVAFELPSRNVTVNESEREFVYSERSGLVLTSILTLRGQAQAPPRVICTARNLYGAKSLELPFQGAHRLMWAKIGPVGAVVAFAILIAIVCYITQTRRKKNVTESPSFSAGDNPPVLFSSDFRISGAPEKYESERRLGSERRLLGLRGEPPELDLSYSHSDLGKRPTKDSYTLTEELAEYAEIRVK

[1] = test system: MAG inhibition of neurite outgrowth; conditions: in vitro cell culture model

| SMILES | Kd (MAG) [µM] | reversing MAG inhibition of neurite outgrowth [1] |
| --- | --- | --- |
| CC(=O)N[C@H]1[C@H](OCC[Si](C)(C)C)O[C@H](CO[C@]2(C(=O)O)C[C@H](O)[C@@H](NC(C)=O)[C@H]([C@H](O)[C@H](O)CO)O2)[C@H](O)[C@@H]1O[C@@H]1O[C@H](CO)[C@H](O)[C@H](O[C@]2(C(=O)O)C[C@H](O)[C@@H](NC(C)=O)[C@H]([C@H](O)[C@H](O)CO)O2)[C@H]1O [Compound 1] | 820 |  |
| COC(=O)[C@@H](NC(C)=O)[C@@H](C)O[C@H]1O[C@H](CO)[C@H](O)[C@H](O[C@@H]2O[C@H](CO)[C@H](O)[C@H](O[C@]3(C(=O)[O-])C[C@H](O)[C@@H](NC(C)=O)[C@H]([C@H](O)[C@H](O)CO)O3)[C@H]2O)[C@H]1NC(C)=O.[Na+] [Compound 11a, sialyl-T-antigen] |  | exhibited activity for reversing MAG inhibition of neurite outgrowth |
